In the supplement of paper PMC10307832:

Assays:
Assay in all cases: relative viability (nuclei count vs DMSO), 5 days (fraction); higher = more cells survive
XMD14-99 + Palbociclib = compound: CN1CCN(CC1)C2=CC(=C(C=C2)NC3=NC(=C(S3)C(=O)C4=C(C=CC=C4Cl)Cl)N)OC [XMD14-99] + CC(=O)c1c(C)c2cnc(Nc3ccc(N4CCNCC4)cn3)nc2n(C2CCCC2)c1=O [Palbociclib] (partner 0.5 µM)
Procedure, shortened: (§1)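 Nuclei were stained with Hoechst during a one-step fixation (final 0.05% Triton X-100, 1% formaldehyde, 1 ug/ml Hoechst) carried out 5 days after dosing, then counted on 4× images. The cells, lung cancer lines in 1536-well plates, had been dosed by pin tool the day after seeding with one drug alone or a fixed anchor-drug dose plus five library-drug doses (not always all listed) in √10 steps. Relative viability is the nuclei count in treated wells divided by that in vehicle wells, and each value is the median of duplicate plates.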

XMD14-99 + Pemetrexed = compound: CN1CCN(CC1)C2=CC(=C(C=C2)NC3=NC(=C(S3)C(=O)C4=C(C=CC=C4Cl)Cl)N)OC [XMD14-99] + Nc1nc2[nH]cc(CCc3ccc(C(=O)N[C@@H](CCC(=O)O)C(=O)O)cc3)c2c(=O)[nH]1 [Pemetrexed] (partner 0.2 µM)
Procedure, shortened: as §1

AZD1208 + Alpelisib = compound: N[C@@H]1CCCN(c2c(/C=C3\SC(=O)NC3=O)cccc2-c2ccccc2)C1 [AZD1208] + Cc1nc(NC(=O)N2CCC[C@H]2C(N)=O)sc1-c1ccnc(C(C)(C)C(F)(F)F)c1 [Alpelisib] (partner 2 µM)
Procedure, shortened: as §1

AZD1208 + Decitabine = compound: N[C@@H]1CCCN(c2c(/C=C3\SC(=O)NC3=O)cccc2-c2ccccc2)C1 [AZD1208] + Nc1ncn([C@H]2C[C@H](O)[C@@H](CO)O2)c(=O)n1 [Decitabine] (partner 2 µM)
Procedure, shortened: as §1

| Cell Line | relative viability (XMD14-99 + Palbociclib; first compound 0.08 µM) | relative viability (XMD14-99 + Palbociclib; first compound 0.8 µM) | relative viability (XMD14-99 + Palbociclib; first compound 2.53 µM) | relative viability (XMD14-99 + Palbociclib; first compound 8 µM) | relative viability (XMD14-99 + Pemetrexed; first compound 0.08 µM) | relative viability (XMD14-99 + Pemetrexed; first compound 0.8 µM) | relative viability (XMD14-99 + Pemetrexed; first compound 2.53 µM) | relative viability (XMD14-99 + Pemetrexed; first compound 8 µM) | relative viability (AZD1208 + Alpelisib; first compound 0.08 µM) | relative viability (AZD1208 + Alpelisib; first compound 0.253 µM) | relative viability (AZD1208 + Alpelisib; first compound 0.8 µM) | relative viability (AZD1208 + Alpelisib; first compound 2.53 µM) | relative viability (AZD1208 + Alpelisib; first compound 8 µM) | relative viability (AZD1208 + Decitabine; first compound 0.08 µM) | relative viability (AZD1208 + Decitabine; first compound 0.253 µM) | relative viability (AZD1208 + Decitabine; first compound 0.8 µM) | relative viability (AZD1208 + Decitabine; first compound 2.53 µM) | relative viability (AZD1208 + Decitabine; first compound 8 µM) |
| --- | --- | --- | --- | --- | --- | --- | --- | --- | --- | --- | --- | --- | --- | --- | --- | --- | --- | --- |
| COR-L 105 | 0.402 | 0.418 | 0.433 | 0.344 | 1.14 | 0.855 | 0.965 | 0.788 | 1.06 | 0.94 | 0.763 | 1.06 | 0.807 | 0.734 | 0.672 | 0.633 | 0.628 | 0.538 |
| SK-LU-1 | 0.418 | 0.42 | 0.356 | 0.266 | 0.98 | 1.02 | 0.942 | 0.684 | 0.792 | 0.913 | 0.979 | 0.9 | 0.76 | 0.586 | 0.621 | 0.629 | 0.622 | 0.511 |
| LXF-289 | 0.625 | 0.571 | 0.55 | 0.575 | 0.692 | 0.862 | 0.85 | 0.781 | 1.05 | 1.13 | 1.01 | 1.03 | 1.03 | 0.36 | 0.423 | 0.378 | 0.36 | 0.289 |
| PC-3 [JPC-3] | 0.574 | 0.501 | 0.59 | 0.538 | 1.28 | 1.13 | 1.1 | 0.635 | 1.07 | 1.07 | 1 | 1.1 | 0.946 | 0.81 | 0.932 | 0.751 | 0.887 | 0.81 |
| NCI-H661 | 0.406 | 0.452 | 0.386 | 0.358 | 0.86 | 0.796 | 0.779 | 0.678 | 0.706 | 0.815 | 0.529 | 0.724 | 0.665 | 0.559 | 0.56 | 0.547 | 0.502 | 0.51 |
| NCI-H1666 | 0.626 | 0.564 | 0.63 | 0.666 | 0.853 | 0.857 | 0.781 | 0.764 | 0.815 | 0.821 | 0.577 | 0.765 | 0.894 | 0.735 | 0.713 | 0.635 | 0.743 | 0.629 |
| NCI-H2087 | 0.198 | 0.279 | 0.236 | 0.246 | 0.681 | 0.644 | 0.597 | 0.611 | 1.04 | 1.03 | 1.09 | 1.13 | 0.963 | 0.229 | 0.307 | 0.258 | 0.236 | 0.25 |
| NCI-H1734 | 0.355 | 0.338 | 0.379 | 0.355 | 0.42 | 0.409 | 0.406 | 0.4 | 0.614 | 0.619 | 0.557 | 0.556 | 0.434 | 0.534 | 0.466 | 0.44 | 0.424 | 0.409 |
| EMC-BAC-2 | 0.523 | 0.516 | 0.509 | 0.481 | 0.437 | 0.449 | 0.403 | 0.368 | 0.752 | 0.74 | 0.636 | 0.701 | 0.62 | 0.932 | 0.94 | 0.903 | 0.992 | 0.812 |
| NCI-H2009 | 0.358 | 0.319 | 0.26 | 0.236 | 1.07 | 1 | 0.947 | 0.997 | 1.13 | 1.17 | 1.07 | 1.13 | 1.13 | 0.41 | 0.374 | 0.346 | 0.39 | 0.336 |
| NCI-H650 | 0.341 | 0.337 | 0.34 | 0.38 | 0.932 | 1.03 | 0.929 | 0.961 | 1.11 | 1.15 | 1.07 | 0.967 | 0.823 | 0.284 | 0.297 | 0.352 | 0.31 | 0.343 |
| NCI-H1792 | 0.64 | 0.697 | 0.631 | 0.598 | 1.03 | 0.72 | 0.68 | 0.529 | 0.629 | 0.742 | 0.579 | 0.608 | 0.535 | 0.624 | 0.538 |  | 0.505 | 0.468 |
| SW 1573 | 0.342 | 0.44 | 0.421 | 0.36 | 0.726 | 0.847 | 0.788 | 0.776 | 0.65 | 0.705 | 0.595 | 0.505 | 0.592 | 0.465 | 0.417 | 0.457 | 0.448 | 0.354 |
| NCI-H2023 | 0.342 | 0.409 | 0.374 | 0.264 | 0.249 | 0.249 | 0.224 | 0.167 | 0.512 | 0.448 | 0.396 | 0.461 | 0.45 | 0.232 | 0.193 | 0.199 | 0.206 | 0.225 |
| LOU-NH91 | 0.509 | 0.548 | 0.575 | 0.499 | 0.351 | 0.379 | 0.319 | 0.415 | 0.72 | 0.719 | 0.632 | 0.681 | 0.673 | 0.766 | 0.798 | 0.793 | 0.798 | 0.798 |
| NCI-H3122 | 0.197 | 0.167 | 0.213 | 0.147 | 0.192 | 0.185 | 0.205 | 0.164 | 0.686 | 0.68 | 0.647 | 0.583 | 0.722 | 0.457 | 0.362 | 0.351 | 0.431 | 0.315 |
| LCLC-97TM1 | 0.197 | 0.239 | 0.321 | 0.203 | 0.19 | 0.173 | 0.198 | 0.167 | 0.267 | 0.212 |  | 0.169 | 0.199 | 0.175 | 0.209 | 0.238 | 0.233 | 0.178 |
| NCI-H647 | 0.408 | 0.459 | 0.505 | 0.364 | 0.147 | 0.14 | 0.209 | 0.141 | 1.03 | 1.28 | 1.06 | 1.06 | 1.01 | 0.256 | 0.56 | 0.33 | 0.372 | 0.297 |
| NCI-H838 | 0.221 | 0.217 | 0.226 | 0.213 | 0.253 | 0.226 | 0.255 | 0.198 | 0.962 | 1.13 | 0.887 | 0.959 | 0.882 | 0.458 | 0.491 | 0.465 | 0.493 | 0.406 |
| H3255 | 0.317 | 0.303 | 0.296 | 0.295 | 0.558 | 0.526 | 0.518 | 0.433 | 0.662 | 0.702 | 0.639 | 0.567 | 0.615 | 0.689 | 0.714 | 0.56 | 0.589 | 0.523 |
| SK-MES-1 | 0.345 | 0.343 | 0.372 | 0.223 | 0.939 | 0.833 | 0.882 | 0.659 | 0.697 | 0.856 | 0.628 | 0.704 | 0.683 | 0.373 | 0.352 | 0.33 | 0.364 | 0.301 |
| NCI-H1437 | 0.307 | 0.311 | 0.252 | 0.221 | 0.303 | 0.313 | 0.307 | 0.27 | 0.927 | 0.981 | 0.796 | 0.827 | 0.504 | 0.546 | 0.594 | 0.638 | 0.581 | 0.536 |
| LU99A | 0.382 | 0.415 | 0.396 | 0.328 | 0.199 | 0.174 | 0.191 | 0.156 | 0.497 | 0.481 | 0.462 | 0.429 | 0.345 | 0.991 | 0.899 | 0.795 | 0.852 | 0.799 |
| HCC-827 | 0.506 | 0.406 | 0.451 | 0.446 | 0.214 | 0.255 | 0.265 | 0.218 | 0.969 | 1.04 | 0.915 | 0.859 | 0.893 | 0.435 | 0.327 | 0.281 | 0.341 | 0.335 |
| LK-2 | 0.572 | 0.804 | 0.655 | 0.611 | 0.219 | 0.247 | 0.258 | 0.119 | 0.85 | 0.759 | 0.618 | 0.567 | 0.477 | 0.316 | 0.291 | 0.23 | 0.274 | 0.195 |
| HCC-366 | 0.452 | 0.383 | 0.346 | 0.306 | 0.219 | 0.18 | 0.18 | 0.128 | 0.453 | 0.362 | 0.337 | 0.27 | 0.227 | 0.315 | 0.354 | 0.312 | 0.386 | 0.333 |
| BEN | 0.489 | 0.468 | 0.478 | 0.476 | 0.747 | 0.794 | 0.845 | 0.492 | 0.876 | 1.1 | 0.704 | 0.673 | 0.507 | 0.779 | 0.577 | 0.653 | 0.653 | 0.564 |
| NCI-H2347 | 0.439 | 0.43 | 0.4 | 0.416 | 0.46 | 0.426 | 0.391 | 0.35 | 1.01 | 0.936 | 1.07 | 0.904 | 0.96 | 0.599 | 0.631 | 0.564 | 0.671 | 0.645 |
| NCI-H1395 | 0.58 | 0.678 | 0.688 | 0.602 | 0.838 | 0.953 | 0.904 | 0.729 | 0.925 | 1.07 | 1.1 | 1.24 | 0.851 | 0.724 | 0.785 | 0.714 | 0.719 | 0.685 |
